Experimental data from US12441765B2, “Peptides and medical uses thereof” (Anbition S.R.L., priority 2018, dated 2025).
Like-named read-outs stand apart in the source and are kept apart here.

How the values were obtained:
[1] = target: T1, VEGF-A/VEGFR-1 interaction (Homo sapiens, UniProt P17948); assay: ELISA competition assay of VEGF-A binding to VEGFR-1; details: for binding % (VEGF-A/VEGFR-1 interaction): residual binding
T1 construct: the form consisting of the seven extracellular domains of the receptor fused to the Fc domain of human lgG; purchased R&D Systems 321-FL (receptor); 293-VE (VEGF-A)
T1 sequence (P17948 27-758 limits assumed): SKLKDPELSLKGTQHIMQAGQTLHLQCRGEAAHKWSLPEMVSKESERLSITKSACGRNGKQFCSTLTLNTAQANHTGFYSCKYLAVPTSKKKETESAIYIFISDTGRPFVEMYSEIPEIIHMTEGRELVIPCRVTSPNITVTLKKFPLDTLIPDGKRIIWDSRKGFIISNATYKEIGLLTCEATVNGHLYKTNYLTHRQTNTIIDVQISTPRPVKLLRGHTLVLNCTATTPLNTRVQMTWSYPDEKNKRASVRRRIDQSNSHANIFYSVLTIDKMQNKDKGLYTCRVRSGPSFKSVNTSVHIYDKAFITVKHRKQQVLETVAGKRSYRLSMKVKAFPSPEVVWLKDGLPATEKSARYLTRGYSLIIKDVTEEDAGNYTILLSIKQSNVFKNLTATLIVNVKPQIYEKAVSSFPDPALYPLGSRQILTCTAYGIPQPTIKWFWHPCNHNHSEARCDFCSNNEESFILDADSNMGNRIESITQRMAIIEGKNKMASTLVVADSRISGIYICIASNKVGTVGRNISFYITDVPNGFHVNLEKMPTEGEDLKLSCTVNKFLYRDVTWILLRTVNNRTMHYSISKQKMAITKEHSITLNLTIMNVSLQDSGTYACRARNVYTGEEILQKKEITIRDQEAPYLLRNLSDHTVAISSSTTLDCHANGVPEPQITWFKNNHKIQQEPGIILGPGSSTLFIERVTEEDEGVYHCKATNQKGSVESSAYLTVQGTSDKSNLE
Protocol: The binding reaction was conducted for one hour at 37° C., followed by one hour at room temperature. At the end of the binding and/or competition step, anti-human-PIGF biotinylated polyclonal antibodies (R&D Systems, cat No. BAF264) or anti-human-VEGF-A (R&D Systems, cat No. BAF293) were added to the wells at the concentration of 300 ng/ml in PBET. After one hour of incubation at 37° C. followed by one hour at room temperature, an HRP-conjugated avidin-streptavidin system (Vectastain elite ABC kit) and a substrate for HRP (o-phenylenediamine-Sigma, cat No. P1526) were added to the wells. Quantization was performed by determining the absorbance at 490 nm. Any inhibitory activity of the peptides was expressed in terms of % of residual binding, comparing the data obtained for the binding of PIGF or VEGF-A to the receptors in the presence of the tetrameric peptides with those in the absence of the same. iVR1 represented the positive control of the inhibition of the PIGF/VEGFR-1 or VEGF-A/VEGFR-1 interaction.

VEGFR1 = VEGFR1 (Homo sapiens, UniProt P17948); details: cited from earlier work
Sequence of VEGFR1 (P17948 27-1338): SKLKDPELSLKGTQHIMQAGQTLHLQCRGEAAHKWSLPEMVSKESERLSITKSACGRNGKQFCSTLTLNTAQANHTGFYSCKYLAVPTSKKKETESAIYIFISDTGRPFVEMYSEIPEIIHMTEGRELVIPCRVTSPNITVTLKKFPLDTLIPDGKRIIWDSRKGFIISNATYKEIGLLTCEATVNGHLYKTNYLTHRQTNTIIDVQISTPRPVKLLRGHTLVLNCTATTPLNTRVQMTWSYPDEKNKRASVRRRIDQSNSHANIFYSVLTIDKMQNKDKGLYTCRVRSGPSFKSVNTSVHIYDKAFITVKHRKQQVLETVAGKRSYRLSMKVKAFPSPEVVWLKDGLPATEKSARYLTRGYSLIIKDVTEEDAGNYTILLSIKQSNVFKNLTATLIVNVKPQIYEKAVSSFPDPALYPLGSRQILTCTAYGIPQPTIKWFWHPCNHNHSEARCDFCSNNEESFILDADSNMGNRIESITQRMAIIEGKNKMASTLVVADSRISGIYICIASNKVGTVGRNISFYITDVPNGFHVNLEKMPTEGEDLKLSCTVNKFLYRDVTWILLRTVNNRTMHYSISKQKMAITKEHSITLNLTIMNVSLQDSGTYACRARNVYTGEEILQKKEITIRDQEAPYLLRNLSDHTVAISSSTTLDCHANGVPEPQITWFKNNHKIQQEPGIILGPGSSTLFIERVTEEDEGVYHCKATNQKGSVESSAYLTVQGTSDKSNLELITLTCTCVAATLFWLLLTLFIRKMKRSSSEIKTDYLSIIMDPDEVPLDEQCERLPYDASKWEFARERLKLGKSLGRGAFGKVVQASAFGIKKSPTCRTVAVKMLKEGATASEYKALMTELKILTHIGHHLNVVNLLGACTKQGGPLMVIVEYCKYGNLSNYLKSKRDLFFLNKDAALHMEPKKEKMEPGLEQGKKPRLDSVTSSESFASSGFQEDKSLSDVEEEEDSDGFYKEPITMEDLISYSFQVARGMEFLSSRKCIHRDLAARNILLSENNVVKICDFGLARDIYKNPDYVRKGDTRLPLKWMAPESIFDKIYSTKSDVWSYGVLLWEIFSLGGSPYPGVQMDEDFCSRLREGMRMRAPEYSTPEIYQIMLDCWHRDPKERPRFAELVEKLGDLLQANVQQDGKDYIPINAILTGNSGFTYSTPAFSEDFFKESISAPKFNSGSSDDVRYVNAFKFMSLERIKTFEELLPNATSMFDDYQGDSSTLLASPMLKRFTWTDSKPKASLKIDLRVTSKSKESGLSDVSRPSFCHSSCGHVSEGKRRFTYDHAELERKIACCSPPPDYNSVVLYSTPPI

PIGF/VEGFR-1 interaction = target: T2, PIGF/VEGFR-1 interaction (Homo sapiens, UniProt P17948); assay: ELISA competition assay of PIGF binding to VEGFR-1; details: for binding % (PIGF/VEGFR-1 interaction): residual binding
T2 construct: the form consisting of the seven extracellular domains of the receptor fused to the Fc domain of human lgG; purchased R&D Systems 321-FL (receptor); 264-PG (PlGF)
T2 sequence (P17948 27-758 limits assumed): as the sequence (P17948 27-758 limits assumed) above
Protocol: The assay to test the binding of PIGF or VEGF-A with the VEGFR-1 receptor is based on the ELISA method [Ponticelli et al., JBC. 2008 Dec. 5; 283 (49): 34250-9] and was performed using reagents acquired from R&D Systems.
The human recombinant receptor VEGFR-1, in particular the form consisting of the seven extracellular domains of the receptor fused to the Fc domain of human lgG (R&D Systems, cat N° 321-FL), was made to adhere in the wells of 96-well microplates at a concentration of 0.5 μg/ml in PBS pH 7.5 (100 μl/well) for 16 hours at room temperature (RT).
After the non-specific binding sites had been blocked in the wells using a buffer solution consisting of PBS pH 7.5 containing 3% BSA, 5 ng/ml of recombinant PIGF (R&D Systems, cat N° 264-PG), or 5 ng/ml of recombinant VEGF-A (R&D Systems, cat N° 293-VE) of human origin in PBET (PBS pH 7.5, BSA 0.1%, EDTA 5 mM, Tween 0.004%) were added to the wells with the adhered receptor.
Simultaneously with the ligands, i.e., PIGF or VEGF-A, graduated doses of iVR1, iVR1-Cys or a control peptide (PC-[(S-Ser)-(S-Ala)-(S-Cha) tripeptide with a tetrameric structure identical to the structure of the iVR1 peptides]) were added at concentrations comprised between 780 and 50000 nM. The binding reaction was conducted for one hour at 37° C., followed by one hour at room temperature.
At the end of the binding and/or competition step, anti-human-PIGF biotinylated polyclonal antibodies (R&D Systems, cat No. BAF264) or anti-human-VEGF-A (R&D Systems, cat No. BAF293) were added to the wells at the concentration of 300 ng/ml in PBET. After one hour of incubation at 37° C. followed by one hour at room temperature, an HRP-conjugated avidin-streptavidin system (Vectastain elite ABC kit) and a substrate for HRP (o-phenylenediamine-Sigma, cat No. P1526) were added to the wells. Quantization was performed by determining the absorbance at 490 nm.
Any inhibitory activity of the peptides was expressed in terms of % of residual binding, comparing the data obtained for the binding of PIGF or VEGF-A to the receptors in the presence of the tetrameric peptides with those in the absence of the same. iVR1 represented the positive control of the inhibition of the PIGF/VEGFR-1 or VEGF-A/VEGFR-1 interaction.

[2] = Serum protease stability in 10% fetal calf serum (RP-HPLC); assay type: in vitro ADME; details: 10% FCS
Protocol: The stability of the peptide iVR1-Cys in 10% serum (fetal calf serum, FCS) in a 50 mM phosphate buffer solution, pH 7.3, at 168 h was determined as described by Ponticelli et al., relying on a method based on RP-HPLC chromatography, described therein [Ponticelli et al., J Biol Chem. 2008 Dec. 5; 283 (49): 34250-9].
The reference curve was constructed by dissolving the compound in DMSO at increasing concentrations of between 0.1 μmol/L and 1000 μmol/L in order to have complete dissolution. The concentration of the molecule left in contact with 10% FCS at the initial concentration of 10 μmol/L was then determined by drawing 3 aliquots at time t=0, then every hour in the first 12 hours and then at 24, 72, 120, and 168 h. The aliquots were diluted 1:1 with acetic acid 0.1 M in order to detach any peptide bound to the albumin, centrifuged to remove any precipitated materials and analyzed by RP-HPLC under the conditions reported in Ponticelli et al. The amount of residual peptide detected in the aliquots, expressed as a percentage relative to the initial amount, was plotted as a function of time. The results are shown in Table VII as the mean of the three determinations±the standard deviation (SD).

With `N[C@H](CCC(=O)O)C(=O)N[C@@H](CSCc1ccccc1)C(=O)N[C@@H](CC1CCCCC1)C(=O)NCCCC[C@H](NC(=O)[C@H](CC1CCCCC1)NC(=O)[C@H](CSCc1ccccc1)NC(=O)[C@H](N)CCC(=O)O)C(=O)NCCCC[C@H](NC(=O)[C@H](CCCCNC(=O)[C@H](CC1CCCCC1)NC(=O)[C@H](CSCc1ccccc1)NC(=O)[C@H](N)CCC(=O)O)NC(=O)[C@H](CC1CCCCC1)NC(=O)[C@H](CSCc1ccccc1)NC(=O)[C@H](N)CCC(=O)O)C(=O)NCC(=O)O` [iVR1] the “binding % (VEGF-A/VEGFR-1 interaction)” value ([1]; peptide 780 nM) was 98.36%, the “binding % (VEGF-A/VEGFR-1 interaction)” value ([1]; peptide 1560 nM) was 96.21% and the “binding % (VEGF-A/VEGFR-1 interaction)” value ([1]; peptide 3125 nM) was 93.93%. The “binding % (VEGF-A/VEGFR-1 interaction)” value ([1]; peptide 6250 nM) was 66.00%, the “binding % (VEGF-A/VEGFR-1 interaction)” value ([1]; peptide 12500 nM) was 37.02% and the “binding % (VEGF-A/VEGFR-1 interaction)” value ([1]; peptide 25000 nM) was 21.45%. For the same compound, the “binding % (VEGF-A/VEGFR-1 interaction)” value ([1]; peptide 50000 nM) was 8.60%, the IC50 ([1]; read-out: IC50 for VEGF-A/VEGFR-1 inhibition) was roughly 10 µM and the IC50 (VEGFR1; in vitro, reported by Ponticelli et al., read-out: IC50 of inhibition of the interaction of PIGF, VEGF-A and VEGF-B with VEGFR1) was roughly 10 µM. The IC50 (VEGFR1; reported in Ponticelli et al., read-out: affinity towards VEGFR1 (expressed as IC50)) was no less than 10 µM, the “binding % (PIGF/VEGFR-1 interaction)” value (PIGF/VEGFR-1 interaction; peptide 780 nM) was 99.36% and the “binding % (PIGF/VEGFR-1 interaction)” value (PIGF/VEGFR-1 interaction; peptide 1560 nM) was 101.32%. For the same compound, the “binding % (PIGF/VEGFR-1 interaction)” value (PIGF/VEGFR-1 interaction; peptide 3125 nM) was 96.10%, the “binding % (PIGF/VEGFR-1 interaction)” value (PIGF/VEGFR-1 interaction; peptide 6250 nM) was 68.49% and the “binding % (PIGF/VEGFR-1 interaction)” value (PIGF/VEGFR-1 interaction; peptide 12500 nM) was 44.57%. For the same compound, the “binding % (PIGF/VEGFR-1 interaction)” value (PIGF/VEGFR-1 interaction; peptide 25000 nM) was 36.02%, the “binding % (PIGF/VEGFR-1 interaction)” value (PIGF/VEGFR-1 interaction; peptide 50000 nM) was 26.26% and the IC50 (PIGF/VEGFR-1 interaction; read-out: IC50 of inhibition of the interaction of PIGF with VEGFR-1) was roughly 10 µM.

In the case of `N[C@H](CCC(=O)O)C(=O)N[C@@H](CSCc1ccccc1)C(=O)N[C@@H](CC1CCCCC1)C(=O)NCCCC[C@H](NC(=O)[C@H](CC1CCCCC1)NC(=O)[C@H](CSCc1ccccc1)NC(=O)[C@H](N)CCC(=O)O)C(=O)NCCCC[C@H](NC(=O)[C@H](CCCCNC(=O)[C@H](CC1CCCCC1)NC(=O)[C@H](CSCc1ccccc1)NC(=O)[C@H](N)CCC(=O)O)NC(=O)[C@H](CC1CCCCC1)NC(=O)[C@H](CSCc1ccccc1)NC(=O)[C@H](N)CCC(=O)O)C(=O)N[C@H](CS)C(=O)O` [iVR1-Cys], the “% residual peptide ± SD” value ([2]; 0 h, 50 mM phosphate buffer pH 7.3, initial 10 μmol/L) is reported as 101 ± 4%, the remaining at 1 h, 10 μmol/L ([2]; calf (bovine), 10% fetal calf serum, 1 h, pH 7.3, read-out: % residual peptide ± SD) is reported as 100 ± 11% and the remaining at 2 h, 10 μmol/L ([2]; calf (bovine), 10% fetal calf serum, 2 h, pH 7.3, read-out: % residual peptide ± SD) is reported as 99 ± 7%. It also gave a remaining at 3 h, 10 μmol/L ([2]; calf (bovine), 10% fetal calf serum, 3 h, pH 7.3, read-out: % residual peptide ± SD) of 98 ± 5%, a remaining at 4 h, 10 μmol/L ([2]; calf (bovine), 10% fetal calf serum, 4 h, pH 7.3, read-out: % residual peptide ± SD) of 97 ± 4% and a remaining at 5 h, 10 μmol/L ([2]; calf (bovine), 10% fetal calf serum, 5 h, pH 7.3, read-out: % residual peptide ± SD) of 96 ± 5%. For the same compound, the remaining at 6 h, 10 μmol/L ([2]; calf (bovine), 10% fetal calf serum, 6 h, pH 7.3, read-out: % residual peptide ± SD) was 99 ± 6%, the remaining at 7 h, 10 μmol/L ([2]; calf (bovine), 10% fetal calf serum, 7 h, pH 7.3, read-out: % residual peptide ± SD) was 95 ± 8% and the remaining at 8 h, 10 μmol/L ([2]; calf (bovine), 10% fetal calf serum, 8 h, pH 7.3, read-out: % residual peptide ± SD) was 96 ± 5%. It also gave a remaining at 9 h, 10 μmol/L ([2]; calf (bovine), 10% fetal calf serum, 9 h, pH 7.3, read-out: % residual peptide ± SD) of 95 ± 6%, a remaining at 10 h, 10 μmol/L ([2]; calf (bovine), 10% fetal calf serum, 10 h, pH 7.3, read-out: % residual peptide ± SD) of 94 ± 10% and a remaining at 11 h, 10 μmol/L ([2]; calf (bovine), 10% fetal calf serum, 11 h, pH 7.3, read-out: % residual peptide ± SD) of 94 ± 8%. For the same compound, the remaining at 12 h, 10 μmol/L ([2]; calf (bovine), 10% fetal calf serum, 12 h, pH 7.3, read-out: % residual peptide ± SD) was 93 ± 4%, the remaining at 24 h, 10 μmol/L ([2]; calf (bovine), 10% fetal calf serum, 24 h, pH 7.3, read-out: % residual peptide ± SD) was 93 ± 6% and the remaining at 72 h, 10 μmol/L ([2]; calf (bovine), 10% fetal calf serum, 72 h, pH 7.3, read-out: % residual peptide ± SD) was 92 ± 7%. The remaining at 120 h, 10 μmol/L ([2]; calf (bovine), 10% fetal calf serum, 120 h, pH 7.3, read-out: % residual peptide ± SD) was 91 ± 5% and the remaining at 168 h, 10 μmol/L ([2]; calf (bovine), 10% fetal calf serum, 168 h, pH 7.3, read-out: % residual peptide ± SD) was 92 ± 8%.
